Results taken from the NIST ThermoML archive (doi:10.1021/je0601356).
Where “and” joins values, the source holds several entries; their conditions need not be identical. Identical values can stand only once. Numbers after ± are expanded uncertainties.

Details: Liquid, Vibrating wire viscometry

CC(F)(F)F [1,1,1-trifluoroethane]
Details | viscosity
254.35 K, 1340 kPa | 0.2054 ± 0.006 mPa·s
254.35 K, 1350 kPa | 0.2063 ± 0.006 mPa·s and 0.2059 ± 0.006 mPa·s and 0.2062 ± 0.006 mPa·s
254.35 K, 1360 kPa | 0.2057 ± 0.006 mPa·s and 0.2065 ± 0.006 mPa·s
254.35 K, 1410 kPa | 0.206 ± 0.006 mPa·s
254.35 K, 1450 kPa | 0.2063 ± 0.006 mPa·s
254.35 K, 1960 kPa | 0.208 ± 0.006 mPa·s and 0.2082 ± 0.006 mPa·s
254.35 K, 1970 kPa | 0.2078 ± 0.006 mPa·s
254.35 K, 2010 kPa | 0.2081 ± 0.006 mPa·s and 0.208 ± 0.006 mPa·s
254.35 K, 2040 kPa | 0.2083 ± 0.006 mPa·s
254.35 K, 2070 kPa | 0.2088 ± 0.006 mPa·s
254.35 K, 3110 kPa | 0.2114 ± 0.0061 mPa·s
254.35 K, 3160 kPa | 0.2116 ± 0.0061 mPa·s
254.35 K, 3170 kPa | 0.2115 ± 0.0061 mPa·s
254.35 K, 3210 kPa | 0.2122 ± 0.0061 mPa·s
254.35 K, 3280 kPa | 0.212 ± 0.0061 mPa·s
254.35 K, 3320 kPa | 0.2119 ± 0.0061 mPa·s
254.35 K, 4170 kPa | 0.2145 ± 0.0061 mPa·s
254.35 K, 4190 kPa | 0.2147 ± 0.0061 mPa·s
254.35 K, 4210 kPa | 0.2147 ± 0.0061 mPa·s
254.35 K, 4940 kPa | 0.2173 ± 0.0061 mPa·s
254.35 K, 4970 kPa | 0.2167 ± 0.0062 mPa·s
254.35 K, 5000 kPa | 0.2176 ± 0.0062 mPa·s
254.35 K, 5020 kPa | 0.2172 ± 0.0061 mPa·s
254.35 K, 5050 kPa | 0.2171 ± 0.0061 mPa·s
254.35 K, 5100 kPa | 0.2176 ± 0.0062 mPa·s
263.02 K, 1300 kPa | 0.1828 ± 0.0056 mPa·s
263.02 K, 1320 kPa | 0.1828 ± 0.0056 mPa·s and 0.1829 ± 0.0056 mPa·s
263.02 K, 1330 kPa | 0.1827 ± 0.0056 mPa·s and 0.1826 ± 0.0056 mPa·s
263.02 K, 1970 kPa | 0.1855 ± 0.0056 mPa·s
263.02 K, 1980 kPa | 0.1857 ± 0.0056 mPa·s
263.02 K, 1990 kPa | 0.1855 ± 0.0056 mPa·s
263.02 K, 2010 kPa | 0.1851 ± 0.0056 mPa·s
263.02 K, 2020 kPa | 0.1857 ± 0.0056 mPa·s and 0.1859 ± 0.0056 mPa·s
263.02 K, 3420 kPa | 0.1899 ± 0.0058 mPa·s
263.02 K, 3430 kPa | 0.1898 ± 0.0058 mPa·s
263.02 K, 3450 kPa | 0.1898 ± 0.0058 mPa·s
263.02 K, 3520 kPa | 0.1903 ± 0.0057 mPa·s
263.02 K, 3560 kPa | 0.1901 ± 0.0057 mPa·s
263.02 K, 3590 kPa | 0.1898 ± 0.0058 mPa·s
263.02 K, 3640 kPa | 0.1906 ± 0.0057 mPa·s
263.02 K, 3670 kPa | 0.1905 ± 0.0057 mPa·s and 0.1908 ± 0.0057 mPa·s
263.02 K, 4800 kPa | 0.1943 ± 0.0059 mPa·s
263.02 K, 4840 kPa | 0.194 ± 0.0058 mPa·s
263.02 K, 4870 kPa | 0.194 ± 0.0058 mPa·s
263.02 K, 4910 kPa | 0.1942 ± 0.0059 mPa·s
263.02 K, 4950 kPa | 0.1939 ± 0.0059 mPa·s
263.02 K, 6990 kPa | 0.2018 ± 0.0059 mPa·s
263.02 K, 7090 kPa | 0.201 ± 0.0059 mPa·s
263.02 K, 7160 kPa | 0.2015 ± 0.0059 mPa·s
263.02 K, 7200 kPa | 0.2011 ± 0.0059 mPa·s
263.02 K, 7230 kPa | 0.2016 ± 0.0059 mPa·s
263.02 K, 7310 kPa | 0.2013 ± 0.0059 mPa·s and 0.2019 ± 0.0059 mPa·s
263.02 K, 7380 kPa | 0.2024 ± 0.0059 mPa·s
263.02 K, 7390 kPa | 0.2015 ± 0.0059 mPa·s
263.02 K, 7420 kPa | 0.2011 ± 0.0059 mPa·s
263.02 K, 7460 kPa | 0.2024 ± 0.0059 mPa·s and 0.2022 ± 0.0059 mPa·s
263.02 K, 7520 kPa | 0.2017 ± 0.0059 mPa·s
273.21 K, 1420 kPa | 0.1617 ± 0.0052 mPa·s
273.21 K, 1430 kPa | 0.1619 ± 0.0053 mPa·s
273.21 K, 1440 kPa | 0.1619 ± 0.0053 mPa·s
273.21 K, 1450 kPa | 0.1619 ± 0.0053 mPa·s
273.21 K, 1810 kPa | 0.1629 ± 0.0053 mPa·s
273.21 K, 1820 kPa | 0.1627 ± 0.0053 mPa·s
273.21 K, 1860 kPa | 0.1629 ± 0.0053 mPa·s
273.21 K, 1890 kPa | 0.1626 ± 0.0053 mPa·s
273.21 K, 3450 kPa | 0.1681 ± 0.0054 mPa·s and 0.1679 ± 0.0053 mPa·s and 0.1682 ± 0.0054 mPa·s
273.21 K, 3460 kPa | 0.1677 ± 0.0053 mPa·s
273.21 K, 3490 kPa | 0.1682 ± 0.0054 mPa·s and 0.1678 ± 0.0053 mPa·s
273.21 K, 3500 kPa | 0.168 ± 0.0054 mPa·s
273.21 K, 4850 kPa | 0.1724 ± 0.0055 mPa·s
273.21 K, 4860 kPa | 0.1722 ± 0.0054 mPa·s
273.21 K, 4880 kPa | 0.1724 ± 0.0054 mPa·s and 0.1719 ± 0.0055 mPa·s
273.21 K, 4910 kPa | 0.1722 ± 0.0054 mPa·s
273.21 K, 4960 kPa | 0.1724 ± 0.0055 mPa·s
273.21 K, 5010 kPa | 0.172 ± 0.0055 mPa·s
273.21 K, 5030 kPa | 0.1723 ± 0.0055 mPa·s
273.21 K, 7780 kPa | 0.1804 ± 0.0055 mPa·s
273.21 K, 7800 kPa | 0.1805 ± 0.0055 mPa·s
273.21 K, 7810 kPa | 0.1806 ± 0.0055 mPa·s
273.21 K, 7900 kPa | 0.1803 ± 0.0055 mPa·s
273.21 K, 7960 kPa | 0.1805 ± 0.0055 mPa·s
273.21 K, 9530 kPa | 0.1854 ± 0.0056 mPa·s
273.21 K, 9540 kPa | 0.1852 ± 0.0056 mPa·s
273.21 K, 9580 kPa | 0.1856 ± 0.0056 mPa·s
273.21 K, 9610 kPa | 0.1851 ± 0.0056 mPa·s
273.21 K, 9770 kPa | 0.185 ± 0.0056 mPa·s
273.21 K, 9880 kPa | 0.1853 ± 0.0056 mPa·s
283.22 K, 1240 kPa | 0.1416 ± 0.005 mPa·s
283.22 K, 1260 kPa | 0.1418 ± 0.0049 mPa·s
283.22 K, 1470 kPa | 0.1416 ± 0.0049 mPa·s
283.22 K, 1510 kPa | 0.1424 ± 0.005 mPa·s
283.22 K, 1530 kPa | 0.1424 ± 0.005 mPa·s
283.22 K, 1570 kPa | 0.1429 ± 0.005 mPa·s
283.22 K, 1900 kPa | 0.1433 ± 0.005 mPa·s
283.22 K, 1930 kPa | 0.1433 ± 0.005 mPa·s
283.22 K, 1950 kPa | 0.1432 ± 0.005 mPa·s
283.22 K, 1970 kPa | 0.144 ± 0.005 mPa·s
283.22 K, 2000 kPa | 0.1435 ± 0.005 mPa·s
283.22 K, 2050 kPa | 0.1442 ± 0.005 mPa·s
283.22 K, 3700 kPa | 0.1495 ± 0.0051 mPa·s
283.22 K, 3720 kPa | 0.1496 ± 0.0051 mPa·s
283.22 K, 3850 kPa | 0.1497 ± 0.0051 mPa·s
283.22 K, 5130 kPa | 0.1537 ± 0.0052 mPa·s
283.22 K, 5220 kPa | 0.1543 ± 0.0051 mPa·s
283.22 K, 5260 kPa | 0.1536 ± 0.0052 mPa·s and 0.154 ± 0.0052 mPa·s
283.22 K, 7400 kPa | 0.1615 ± 0.0053 mPa·s
283.22 K, 7500 kPa | 0.161 ± 0.0052 mPa·s
283.22 K, 7540 kPa | 0.1607 ± 0.0052 mPa·s
283.22 K, 9720 kPa | 0.1679 ± 0.0053 mPa·s
283.22 K, 9780 kPa | 0.1678 ± 0.0053 mPa·s
283.22 K, 9940 kPa | 0.168 ± 0.0053 mPa·s
283.22 K, 10050 kPa | 0.1678 ± 0.0053 mPa·s
293.17 K, 1370 kPa | 0.1253 ± 0.0047 mPa·s
293.17 K, 1390 kPa | 0.1255 ± 0.0047 mPa·s
293.17 K, 1400 kPa | 0.1252 ± 0.0047 mPa·s
293.17 K, 1420 kPa | 0.1256 ± 0.0047 mPa·s
293.17 K, 1430 kPa | 0.1258 ± 0.0047 mPa·s and 0.1256 ± 0.0047 mPa·s
293.17 K, 1440 kPa | 0.1258 ± 0.0047 mPa·s
293.17 K, 1850 kPa | 0.1268 ± 0.0047 mPa·s
293.17 K, 1860 kPa | 0.1266 ± 0.0047 mPa·s
293.17 K, 1890 kPa | 0.1271 ± 0.0047 mPa·s
293.17 K, 1920 kPa | 0.1267 ± 0.0047 mPa·s
293.17 K, 1940 kPa | 0.127 ± 0.0047 mPa·s
293.17 K, 3820 kPa | 0.1333 ± 0.0048 mPa·s
293.17 K, 3830 kPa | 0.1336 ± 0.0048 mPa·s
293.17 K, 3850 kPa | 0.1337 ± 0.0048 mPa·s
293.17 K, 3860 kPa | 0.1335 ± 0.0048 mPa·s
293.17 K, 3870 kPa | 0.1333 ± 0.0048 mPa·s
293.17 K, 3890 kPa | 0.1335 ± 0.0048 mPa·s and 0.1336 ± 0.0048 mPa·s
293.17 K, 4900 kPa | 0.1378 ± 0.0049 mPa·s
293.17 K, 4920 kPa | 0.1377 ± 0.0049 mPa·s
293.17 K, 4960 kPa | 0.138 ± 0.0049 mPa·s
293.17 K, 4970 kPa | 0.138 ± 0.0049 mPa·s
293.17 K, 5010 kPa | 0.1381 ± 0.0049 mPa·s
293.17 K, 7450 kPa | 0.1448 ± 0.005 mPa·s
293.17 K, 7490 kPa | 0.1446 ± 0.005 mPa·s
293.17 K, 7520 kPa | 0.145 ± 0.005 mPa·s
293.17 K, 7550 kPa | 0.1449 ± 0.005 mPa·s
293.17 K, 7560 kPa | 0.1449 ± 0.005 mPa·s
293.17 K, 7590 kPa | 0.1451 ± 0.005 mPa·s
293.17 K, 7620 kPa | 0.1453 ± 0.005 mPa·s
293.17 K, 9740 kPa | 0.1507 ± 0.0051 mPa·s
293.17 K, 9770 kPa | 0.1506 ± 0.0051 mPa·s
293.17 K, 9820 kPa | 0.1507 ± 0.0051 mPa·s
293.17 K, 9880 kPa | 0.151 ± 0.0051 mPa·s
293.17 K, 9970 kPa | 0.1511 ± 0.0051 mPa·s
293.17 K, 10070 kPa | 0.1517 ± 0.0051 mPa·s
